Tests used:
[1] = molecular target: T1, HDAC6 (Homo sapiens, UniProt Q9UBN7); test: LCMS characterization of enzymatic deacetylation by HDAC6; format: biochemical; conditions: 5 μM probe, 12 hours at 37° C.
T1 sequence (Q9UBN7 1-1215): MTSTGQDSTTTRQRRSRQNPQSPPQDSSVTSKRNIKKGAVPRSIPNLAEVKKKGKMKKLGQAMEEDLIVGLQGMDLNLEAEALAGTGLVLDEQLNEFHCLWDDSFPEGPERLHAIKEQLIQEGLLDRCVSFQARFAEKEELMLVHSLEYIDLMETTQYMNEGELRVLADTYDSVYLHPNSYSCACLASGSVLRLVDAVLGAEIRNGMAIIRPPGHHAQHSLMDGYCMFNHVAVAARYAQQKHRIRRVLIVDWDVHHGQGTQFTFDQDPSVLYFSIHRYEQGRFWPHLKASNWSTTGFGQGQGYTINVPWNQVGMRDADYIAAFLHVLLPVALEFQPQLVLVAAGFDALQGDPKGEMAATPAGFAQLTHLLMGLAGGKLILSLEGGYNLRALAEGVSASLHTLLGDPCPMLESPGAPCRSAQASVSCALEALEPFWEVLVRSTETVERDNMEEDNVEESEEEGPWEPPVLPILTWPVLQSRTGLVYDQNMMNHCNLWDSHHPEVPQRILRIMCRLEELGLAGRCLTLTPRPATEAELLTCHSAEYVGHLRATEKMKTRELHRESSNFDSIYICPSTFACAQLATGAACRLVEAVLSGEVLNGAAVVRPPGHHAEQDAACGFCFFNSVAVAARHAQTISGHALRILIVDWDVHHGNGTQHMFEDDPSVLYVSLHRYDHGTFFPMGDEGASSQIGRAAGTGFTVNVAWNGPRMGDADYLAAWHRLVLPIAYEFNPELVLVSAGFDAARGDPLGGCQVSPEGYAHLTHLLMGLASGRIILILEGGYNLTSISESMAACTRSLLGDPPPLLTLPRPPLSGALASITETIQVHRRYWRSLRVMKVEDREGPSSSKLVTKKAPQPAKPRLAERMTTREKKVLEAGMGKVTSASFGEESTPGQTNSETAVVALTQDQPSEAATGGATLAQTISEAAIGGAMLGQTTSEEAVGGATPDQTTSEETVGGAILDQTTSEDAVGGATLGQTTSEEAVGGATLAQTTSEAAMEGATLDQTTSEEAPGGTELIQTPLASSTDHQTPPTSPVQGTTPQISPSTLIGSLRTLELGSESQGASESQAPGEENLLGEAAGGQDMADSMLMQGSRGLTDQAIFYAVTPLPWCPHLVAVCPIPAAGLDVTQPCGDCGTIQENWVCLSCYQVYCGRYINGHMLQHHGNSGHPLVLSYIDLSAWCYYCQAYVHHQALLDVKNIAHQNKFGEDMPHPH
Experimental: The enzymatic cleavage of HP-1 and HP-2 was analyzed by performing LCMS assays with HeLa nuclear extract (AnaSpec), HeLa whole cell lysate (Santa Cruz Inc.), and the following purified HDAC isoforms: 1, 2, 3, 6 and 8 (HDAC1, 3 and 8 from Cayman Chemicals and HDAC2 and 6 provided by Dr. Stephen Haggarty). Solutions containing (i) vehicle with DMSO in HDAC buffer, (ii) 5 μM probe in HDAC buffer, (iii) 5 μM probe and HDAC enzyme/HeLa nuclear extract/HeLa whole cell lysate in HDAC buffer, or (iv) 5 μM probe and HDAC enzyme/HeLa nuclear extract/HeLa whole cell lysate pre-incubated with 10 μM SAHA (Provided by Dr. Stephen Haggarty) in HDAC buffer were incubated for 12 hours at 37° C. Following incubation, a 20 μL aliquot of supernatant from each sample was analyzed by LCMS. […] For HP-1, the (M+H)^+ ion for the corresponding aldehyde (8, DHP-1) was detected, which formed following reaction of the initial imine deacetylation product with water. […] The peak area for each detected compound was measured to determine the % deacetylation of each probe. All assay samples were analyzed in triplicate. […]
LCMS characterization of HDAC enzymatic action on HP-1 and HP-2. […] Following incubation, an aliquot of supernatant from each sample was analyzed by LCMS. […] The peak area for each detected compound was measured to determine the % deacetylation of each probe (full experimental details in Example 1).

[2] = molecular target: T2, HDAC1 (Homo sapiens, UniProt Q13547); test: HDAC1 IC50 (Trypsin-coupled assay and Caliper endpoint assay); format: biochemical; conditions: competitive inhibition with a peptide substrate
T2 construct: purchased Cayman Chemicals
T2 sequence (Q13547 whole entry): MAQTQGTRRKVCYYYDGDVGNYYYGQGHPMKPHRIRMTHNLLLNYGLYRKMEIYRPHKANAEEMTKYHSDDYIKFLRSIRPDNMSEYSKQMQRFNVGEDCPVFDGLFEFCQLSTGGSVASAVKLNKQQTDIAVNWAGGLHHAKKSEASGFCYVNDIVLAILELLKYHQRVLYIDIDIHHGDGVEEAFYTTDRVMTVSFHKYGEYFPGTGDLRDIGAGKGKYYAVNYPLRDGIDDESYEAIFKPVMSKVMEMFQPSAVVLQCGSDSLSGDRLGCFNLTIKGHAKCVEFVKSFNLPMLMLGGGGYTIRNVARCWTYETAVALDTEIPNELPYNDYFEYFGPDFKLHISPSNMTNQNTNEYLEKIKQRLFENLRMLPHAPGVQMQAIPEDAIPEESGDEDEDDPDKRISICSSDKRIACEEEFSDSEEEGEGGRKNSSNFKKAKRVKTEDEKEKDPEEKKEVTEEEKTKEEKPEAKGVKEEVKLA
Experimental: HP-1 and HP-2 IC50 values for HDAC1 were determined using the Trypsin-coupled assay as well as the Caliper endpoint assay. HP-1 and HP-2 IC50 values for HDAC2, HDAC3, HDAC6 and HDAC8 were determined with the Caliper endpoint assay.
In vitro HDAC 1 end point enzymatic assays were performed in optimized 96-well format as previously described^3,4 with the following modifications. Reactions were performed in volume of 120 uL with 30 ng of full-length, recombinant HDAC1 (BPS Biosciences). TCEP was excluded from the assay buffer. HDAC1 was pre-incubated with varying concentrations of HP-1 or HP-2, or DMSO vehicle for 30 minutes. Fluorophore-conjugated acetyl-lysine tripeptide substrate was added at a concentration equivalent to the substrate Km, 11 uM, and the deacetylation reaction was allowed to run for 45 minutes at RT. […] Fluorescence intensity of the aminomethylcoumarin liberated by deacetylase and trypsin enzymatic activity was monitored at 460 nm using a multilabel plate reader (EnVision, Perkin-Elmer) every 5 minutes until stable, about 25 minutes. […]
IC50 measurements. HP-1 and HP-2 IC50 values for HDAC1 were determined using the Trypsin-coupled assay as well as the Caliper endpoint assay. HP-1 and HP-2 IC50 values for HDAC2, HDAC3, HDAC6 and HDAC8 were determined with the Caliper endpoint assay (full experimental details in Example 1).

Structure (SMILES): CC(=O)NC=CCCCCNC(=O)CCCCCNc1ccc([N+](=O)[O-])c2nonc12 [HP-1]
- % HP-1 to DHP-1 ([1]; HDAC6, +SAHA (10 μM)): 0%
- % HP-1 to DHP-1 ([1]; HDAC6, −SAHA): 0%
- IC50 ([2]; HDAC1, table does not say whether Trypsin-coupled or Caliper assay): 35.8 µM
- inhibition of HDAC1 (in words) [2]: weakly inhibit

Source: patent publication US20160138077A1, “MONITORING AND ASSESSING DEACETYLASE ENZYME ACTIVITY” (THE GENERAL HOSPITAL CORPORATION, priority 2013, published 2016)
